ChEMBL document CHEMBL1177794, “Broad spectrum alkynyl inhibitors of T315I Bcr-Abl” (Bioorg Med Chem Lett, 2010)

Experiments:
BaF3 = experiment: Antiproliferative activity against mouse BAF3 cells expressing Bcr-Abl T315I mutant; assay type: functional, cell-based
[1] = target: Tyrosine-protein kinase ABL2 (Homo sapiens) (UniProt P42684); experiment: Inhibition of ABL2 at 10 uM; settings: values are per cent of control
[2] = target: Mitogen-activated protein kinase kinase kinase 5 (Homo sapiens) (UniProt Q99683); experiment: Inhibition of ASK1 at 10 uM; settings: values are per cent of control
[3] = target: Aurora kinase A (Homo sapiens) (UniProt O14965); experiment: Inhibition of AURKA at 10 uM; settings: values are per cent of control
[4] = target: Serine/threonine-protein kinase B-raf (Homo sapiens) (UniProt P15056); experiment: Inhibition of BRAF at 10 uM; settings: values are per cent of control
[5] = target: Calcium/calmodulin-dependent protein kinase type 1D (Homo sapiens) (UniProt Q8IU85); experiment: Inhibition of CAMK1D at 10 uM; settings: values are per cent of control
[6] = target: Calcium/calmodulin-dependent protein kinase type II subunit gamma (Homo sapiens) (UniProt Q13555); experiment: Inhibition of CAMK2G at 10 uM; settings: values are per cent of control
[7] = target: Peripheral plasma membrane protein CASK (Homo sapiens) (UniProt O14936); experiment: Inhibition of CASK at 10 uM; settings: values are per cent of control
[8] = target: Discoidin domain-containing receptor 2 (Homo sapiens) (UniProt Q16832); experiment: Inhibition of DDR2 at 10 uM; settings: values are per cent of control
[9] = target: Ephrin type-A receptor 8 (Homo sapiens) (UniProt P29322); experiment: Inhibition of EPHA8 at 10 uM; settings: values are per cent of control
[10] = target: Mitogen-activated protein kinase 3 (Homo sapiens) (UniProt P27361); experiment: Inhibition of ERK1 at 10 uM; settings: values are per cent of control
[11] = target: Mitogen-activated protein kinase kinase kinase 3 (Homo sapiens) (UniProt Q99759); experiment: Inhibition of MAP3K3 at 10 uM; settings: values are per cent of control
[12] = target: Serine/threonine-protein kinase MARK2 (Homo sapiens) (UniProt Q7KZI7); experiment: Inhibition of MARK2 at 10 uM; settings: values are per cent of control
[13] = target: Dual specificity mitogen-activated protein kinase kinase 5 (Homo sapiens) (UniProt Q13163); experiment: Inhibition of MEK5 at 10 uM; settings: values are per cent of control
[14] = target: Maternal embryonic leucine zipper kinase (Homo sapiens) (UniProt Q14680); experiment: Inhibition of MELK at 10 uM; settings: values are per cent of control
[15] = target: Mitogen-activated protein kinase kinase kinase 10 (Homo sapiens) (UniProt Q02779); experiment: Inhibition of MLK2 at 10 uM
[16] = target: Myosin light chain kinase 2, skeletal/cardiac muscle (Homo sapiens) (UniProt Q9H1R3); experiment: Inhibition of MYLK2 at 10 uM
[17] = target: Myosin-IIIa (Homo sapiens) (UniProt Q8NEV4); experiment: Inhibition of MYO3A at 10 uM
[18] = target: Myosin-IIIb (Homo sapiens) (UniProt Q8WXR4); experiment: Inhibition of MYO3B at 10 uM
[19] = target: Serine/threonine-protein kinase tousled-like 2 (Homo sapiens) (UniProt Q86UE8); experiment: Inhibition of TLK2 at 10 uM; settings: values are per cent of control
[20] = target: Vascular endothelial growth factor receptor 2 (Homo sapiens) (UniProt P35968); experiment: Inhibition of VEGFR2 at 10 uM; settings: values are per cent of control
[21] = target: Serine/threonine-protein kinase VRK2 (Homo sapiens) (UniProt Q86Y07); experiment: Inhibition of VRK2 at 10 uM; settings: values are per cent of control
[22] = target: Serine/threonine-protein kinase 25 (Homo sapiens) (UniProt O00506); experiment: Inhibition of YSK1 at 10 uM; settings: values are per cent of control
[23] = target: Platelet-derived growth factor receptor alpha (Homo sapiens) (UniProt P16234); experiment: Inhibition of PDGFRA at 10 uM; settings: values are per cent of control
[24] = target: Phosphatidylinositol 3-kinase C2 domain-containing subunit gamma (Homo sapiens) (UniProt O75747); experiment: Inhibition of PIK3C2G at 10 uM
[25] = system: Phosphatidylinositol 4,5-bisphosphate 3-kinase catalytic subunit alpha isoform (Homo sapiens), P42336 [E545K]; experiment: Inhibition of PIK3CA E545K mutant at 10 uM
[26] = target: Phosphatidylinositol 5-phosphate 4-kinase type-2 beta (Homo sapiens) (UniProt P78356); experiment: Inhibition of PIP5K2B at 10 uM
[27] = target: RAF proto-oncogene serine/threonine-protein kinase (Homo sapiens) (UniProt P04049); experiment: Inhibition of RAF1 at 10 uM; settings: values are per cent of control
[28] = target: Serine/threonine-protein kinase RIO2 (Homo sapiens) (UniProt Q9BVS4); experiment: Inhibition of RIOK2 at 10 uM; settings: values are per cent of control
[29] = target: Ribosomal protein S6 kinase alpha-5 (Homo sapiens) (UniProt O75582); experiment: Inhibition of RPS6KA5 C-terminal domain2 at 10 uM
[30] = target: Ribosomal protein S6 kinase alpha-6 (Homo sapiens) (UniProt Q9UK32); experiment: Inhibition of RSK4 N-terminal domain1 at 10 uM
[31] = target: Tyrosine-protein kinase BTK (Homo sapiens) (UniProt Q06187); experiment: Inhibition of BTK at 10 uM; values are per cent of control
[32] = target: Mitogen-activated protein kinase 8 (Homo sapiens) (UniProt P45983); experiment: Inhibition of JNK1 at 10 uM; values are per cent of control
[33] = target: Angiopoietin-1 receptor (Homo sapiens) (UniProt Q02763); experiment: Inhibition of TIE2 at 10 uM; values are per cent of control
[34] = target: Serine/threonine-protein kinase Chk2 (Homo sapiens) (UniProt O96017); experiment: Inhibition of CHEK2 at 10 uM; values are per cent of control
[35] = target: Ephrin type-A receptor 5 (Homo sapiens) (UniProt P54756); experiment: Inhibition of EPHA5 at 10 uM; values are per cent of control
[36] = target: Interleukin-1 receptor-associated kinase 1 (Homo sapiens) (UniProt P51617); experiment: Inhibition of IRAK1 at 10 uM; values are per cent of control
[37] = target: Serine/threonine-protein kinase LATS1 (Homo sapiens) (UniProt O95835); experiment: Inhibition of LATS1 at 10 uM; values are per cent of control
[38] = target: Mitogen-activated protein kinase 11 (Homo sapiens) (UniProt Q15759); experiment: Inhibition of p38beta at 10 uM; values are per cent of control
[39] = target: Tyrosine-protein kinase JAK1 (Homo sapiens) (UniProt P23458); experiment: Inhibition of JAK1 JH1 catalytic domain at 10 uM; values are per cent of control
[40] = system: Epidermal growth factor receptor (Homo sapiens), P00533 [UNDEFINED MUTATION]; experiment: Inhibition of EGFR L747-E749del, A750P mutant at 10 uM; values are per cent of control

Chain of Maternal embryonic leucine zipper kinase (Homo sapiens) (Q14680 whole entry, looked up): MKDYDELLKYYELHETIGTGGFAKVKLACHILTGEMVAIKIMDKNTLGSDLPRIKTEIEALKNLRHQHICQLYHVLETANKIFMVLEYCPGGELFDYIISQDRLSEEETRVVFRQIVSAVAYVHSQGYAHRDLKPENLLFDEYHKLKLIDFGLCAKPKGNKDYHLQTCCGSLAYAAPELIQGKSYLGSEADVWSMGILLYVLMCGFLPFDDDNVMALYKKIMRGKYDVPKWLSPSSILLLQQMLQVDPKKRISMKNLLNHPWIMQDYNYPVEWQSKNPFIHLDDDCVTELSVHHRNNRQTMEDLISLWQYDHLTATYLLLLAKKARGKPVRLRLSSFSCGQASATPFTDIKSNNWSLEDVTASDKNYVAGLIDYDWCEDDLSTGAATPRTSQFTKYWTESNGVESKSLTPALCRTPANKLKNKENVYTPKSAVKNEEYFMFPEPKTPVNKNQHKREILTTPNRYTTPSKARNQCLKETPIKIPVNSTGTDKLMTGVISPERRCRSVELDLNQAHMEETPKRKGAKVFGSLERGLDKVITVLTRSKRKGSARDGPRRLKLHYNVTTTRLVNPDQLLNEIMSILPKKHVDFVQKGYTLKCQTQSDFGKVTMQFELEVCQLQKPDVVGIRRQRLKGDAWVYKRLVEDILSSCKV
Chain of Discoidin domain-containing receptor 2 (Homo sapiens) (Q16832 whole entry, the tested form may be a part): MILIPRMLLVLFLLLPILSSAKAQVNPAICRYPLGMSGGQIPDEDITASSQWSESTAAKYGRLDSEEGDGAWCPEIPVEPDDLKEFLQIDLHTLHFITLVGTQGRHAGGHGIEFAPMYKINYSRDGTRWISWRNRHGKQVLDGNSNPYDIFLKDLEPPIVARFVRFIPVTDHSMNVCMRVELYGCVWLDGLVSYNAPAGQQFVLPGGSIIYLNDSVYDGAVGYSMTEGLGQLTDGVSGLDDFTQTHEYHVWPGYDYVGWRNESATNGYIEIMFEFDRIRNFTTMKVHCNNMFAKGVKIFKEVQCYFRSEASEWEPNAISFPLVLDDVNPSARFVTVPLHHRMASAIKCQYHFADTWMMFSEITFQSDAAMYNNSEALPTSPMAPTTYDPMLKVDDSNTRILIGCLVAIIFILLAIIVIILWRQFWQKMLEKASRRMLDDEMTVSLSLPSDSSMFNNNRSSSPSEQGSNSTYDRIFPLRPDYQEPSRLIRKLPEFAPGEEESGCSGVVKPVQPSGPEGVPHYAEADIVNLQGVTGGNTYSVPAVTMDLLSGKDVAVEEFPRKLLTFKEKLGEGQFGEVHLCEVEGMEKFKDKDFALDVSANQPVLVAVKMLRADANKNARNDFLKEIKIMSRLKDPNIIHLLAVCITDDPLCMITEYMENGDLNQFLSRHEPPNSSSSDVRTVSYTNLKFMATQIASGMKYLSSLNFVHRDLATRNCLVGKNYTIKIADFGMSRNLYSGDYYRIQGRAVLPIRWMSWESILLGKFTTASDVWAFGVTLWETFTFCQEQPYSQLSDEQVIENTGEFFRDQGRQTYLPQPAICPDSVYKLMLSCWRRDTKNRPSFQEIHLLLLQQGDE
Chain of Serine/threonine-protein kinase Chk2 (Homo sapiens) (O96017 whole entry): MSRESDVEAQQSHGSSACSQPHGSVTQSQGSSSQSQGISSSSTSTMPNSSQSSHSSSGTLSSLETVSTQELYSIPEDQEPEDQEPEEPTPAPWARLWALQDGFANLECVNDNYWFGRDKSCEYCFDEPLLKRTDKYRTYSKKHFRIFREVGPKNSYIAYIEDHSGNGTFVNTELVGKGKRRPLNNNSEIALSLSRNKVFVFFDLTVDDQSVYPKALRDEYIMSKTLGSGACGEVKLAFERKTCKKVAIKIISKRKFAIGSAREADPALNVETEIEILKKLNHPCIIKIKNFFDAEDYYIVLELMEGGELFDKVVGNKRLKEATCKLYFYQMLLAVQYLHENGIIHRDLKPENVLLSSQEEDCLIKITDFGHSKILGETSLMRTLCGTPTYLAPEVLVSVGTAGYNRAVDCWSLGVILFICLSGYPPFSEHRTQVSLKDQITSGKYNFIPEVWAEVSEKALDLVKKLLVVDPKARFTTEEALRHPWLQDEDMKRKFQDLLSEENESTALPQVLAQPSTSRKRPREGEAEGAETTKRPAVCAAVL
Chain of Mitogen-activated protein kinase 8 (Homo sapiens) (P45983 whole entry): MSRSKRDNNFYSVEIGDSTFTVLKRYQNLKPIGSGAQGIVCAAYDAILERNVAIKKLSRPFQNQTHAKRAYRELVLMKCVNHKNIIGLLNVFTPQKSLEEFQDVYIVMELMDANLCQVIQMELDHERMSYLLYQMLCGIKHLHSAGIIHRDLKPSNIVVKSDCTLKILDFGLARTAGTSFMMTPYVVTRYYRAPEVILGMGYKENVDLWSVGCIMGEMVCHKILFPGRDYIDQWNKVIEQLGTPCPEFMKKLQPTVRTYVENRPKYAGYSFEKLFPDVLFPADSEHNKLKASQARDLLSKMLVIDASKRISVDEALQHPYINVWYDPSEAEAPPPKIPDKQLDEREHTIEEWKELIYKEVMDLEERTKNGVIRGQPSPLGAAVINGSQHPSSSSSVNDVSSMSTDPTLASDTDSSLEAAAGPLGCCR
Chain of Peripheral plasma membrane protein CASK (Homo sapiens) (O14936 whole entry, the tested form may be a part): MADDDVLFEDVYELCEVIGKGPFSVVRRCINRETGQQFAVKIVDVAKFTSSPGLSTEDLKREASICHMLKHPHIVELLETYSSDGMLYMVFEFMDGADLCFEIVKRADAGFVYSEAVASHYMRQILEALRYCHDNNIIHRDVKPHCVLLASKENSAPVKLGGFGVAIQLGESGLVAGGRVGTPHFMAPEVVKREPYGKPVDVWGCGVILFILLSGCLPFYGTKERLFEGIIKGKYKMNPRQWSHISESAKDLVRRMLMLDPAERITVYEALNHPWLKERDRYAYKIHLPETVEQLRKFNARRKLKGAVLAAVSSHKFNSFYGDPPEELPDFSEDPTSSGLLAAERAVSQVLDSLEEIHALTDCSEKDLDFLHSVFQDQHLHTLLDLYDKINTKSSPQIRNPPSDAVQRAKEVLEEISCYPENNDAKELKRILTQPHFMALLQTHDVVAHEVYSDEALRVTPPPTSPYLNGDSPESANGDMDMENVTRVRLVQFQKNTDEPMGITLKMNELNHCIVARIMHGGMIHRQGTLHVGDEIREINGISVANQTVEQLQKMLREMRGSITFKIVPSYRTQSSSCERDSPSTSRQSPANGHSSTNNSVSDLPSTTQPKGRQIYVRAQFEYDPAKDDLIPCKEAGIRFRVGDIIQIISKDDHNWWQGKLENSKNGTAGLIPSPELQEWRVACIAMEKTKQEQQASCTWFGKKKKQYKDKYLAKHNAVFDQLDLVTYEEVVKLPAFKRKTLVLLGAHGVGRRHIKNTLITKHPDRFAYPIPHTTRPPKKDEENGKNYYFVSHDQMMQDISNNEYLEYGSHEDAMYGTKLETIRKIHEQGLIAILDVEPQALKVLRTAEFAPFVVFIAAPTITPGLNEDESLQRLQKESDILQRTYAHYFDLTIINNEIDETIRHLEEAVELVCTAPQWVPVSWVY
Chain of Interleukin-1 receptor-associated kinase 1 (Homo sapiens) (P51617 whole entry, looked up): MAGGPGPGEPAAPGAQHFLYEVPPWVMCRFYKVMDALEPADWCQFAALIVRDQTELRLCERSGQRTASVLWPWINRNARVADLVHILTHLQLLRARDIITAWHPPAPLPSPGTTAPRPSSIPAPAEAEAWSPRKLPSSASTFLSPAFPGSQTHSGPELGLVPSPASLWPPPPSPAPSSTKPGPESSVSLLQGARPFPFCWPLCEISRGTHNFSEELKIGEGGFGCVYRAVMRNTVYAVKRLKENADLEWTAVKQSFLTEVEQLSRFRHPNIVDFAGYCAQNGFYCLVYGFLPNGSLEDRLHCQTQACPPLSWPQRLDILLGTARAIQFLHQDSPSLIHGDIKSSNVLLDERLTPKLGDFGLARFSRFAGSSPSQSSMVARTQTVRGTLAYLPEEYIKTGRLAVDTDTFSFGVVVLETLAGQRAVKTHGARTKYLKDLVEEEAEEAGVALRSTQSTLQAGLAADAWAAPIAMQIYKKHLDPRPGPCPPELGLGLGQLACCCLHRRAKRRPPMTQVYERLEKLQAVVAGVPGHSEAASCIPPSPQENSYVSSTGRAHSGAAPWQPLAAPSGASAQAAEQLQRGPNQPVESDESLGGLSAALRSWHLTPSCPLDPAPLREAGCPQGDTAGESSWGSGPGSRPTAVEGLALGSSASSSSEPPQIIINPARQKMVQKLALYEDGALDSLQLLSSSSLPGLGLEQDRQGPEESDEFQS
Chain of Mitogen-activated protein kinase kinase kinase 10 (Homo sapiens) (Q02779 whole entry, looked up): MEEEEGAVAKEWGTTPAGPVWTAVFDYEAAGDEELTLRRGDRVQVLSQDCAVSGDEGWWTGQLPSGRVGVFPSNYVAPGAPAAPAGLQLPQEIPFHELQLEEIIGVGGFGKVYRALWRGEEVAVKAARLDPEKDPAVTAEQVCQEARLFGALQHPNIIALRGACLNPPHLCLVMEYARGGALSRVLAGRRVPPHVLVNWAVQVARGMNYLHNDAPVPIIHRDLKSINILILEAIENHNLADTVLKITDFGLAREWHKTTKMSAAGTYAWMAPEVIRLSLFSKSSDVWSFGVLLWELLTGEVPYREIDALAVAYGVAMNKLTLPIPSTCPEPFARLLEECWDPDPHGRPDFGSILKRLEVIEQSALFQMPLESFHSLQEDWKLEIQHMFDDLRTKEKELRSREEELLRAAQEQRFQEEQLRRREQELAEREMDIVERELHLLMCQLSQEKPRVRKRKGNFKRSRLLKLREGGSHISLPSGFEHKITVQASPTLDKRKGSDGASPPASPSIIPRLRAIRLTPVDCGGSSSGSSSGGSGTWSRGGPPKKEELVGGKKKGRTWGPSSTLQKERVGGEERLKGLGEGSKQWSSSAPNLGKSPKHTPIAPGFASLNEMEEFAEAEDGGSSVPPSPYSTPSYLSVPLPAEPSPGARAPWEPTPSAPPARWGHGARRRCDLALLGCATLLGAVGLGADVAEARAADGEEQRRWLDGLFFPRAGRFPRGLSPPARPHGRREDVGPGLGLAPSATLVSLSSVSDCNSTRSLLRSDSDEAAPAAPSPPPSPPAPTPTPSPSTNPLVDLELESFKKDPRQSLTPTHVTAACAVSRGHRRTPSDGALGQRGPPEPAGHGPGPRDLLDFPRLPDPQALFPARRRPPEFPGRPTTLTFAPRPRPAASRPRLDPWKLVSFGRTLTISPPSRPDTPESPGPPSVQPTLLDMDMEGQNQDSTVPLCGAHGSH

CCN1CCN(Cc2ccc(NC(=O)c3ccc(C)c(C#Cc4cnc5[nH]ccc5c4)c3)cc2C(F)(F)F)CC1
EC50 (BaF3): 80 nM
residual binding, % of control [1]: 0%
residual binding, % of control [2]: 24%
residual binding, % of control [3]: 97%
residual binding, % of control [4]: 0.45%
residual binding, % of control [5]: 68%
residual binding, % of control [6]: 92%
residual binding, % of control [7]: 100%
residual binding, % of control [8]: 2.8%
residual binding, % of control [9]: 0%
residual binding, % of control [10]: 96%
residual binding, % of control [11]: 1.4%
residual binding, % of control [12]: 83%
residual binding, % of control [13]: 0.4%
residual binding, % of control [14]: 6.1%
inhibition [15]: 9.5%
inhibition [16]: 0.15%
inhibition [17]: 15%
inhibition [18]: 0%
residual binding, % of control [19]: 100%
residual binding, % of control [20]: 0.35%
residual binding, % of control [21]: 90%
residual binding, % of control [22]: 12%
residual binding, % of control [23]: 0%
inhibition [24]: 100%
inhibition [25]: 98%
inhibition [26]: 7.7%
residual binding, % of control [27]: 0.95%
residual binding, % of control [28]: 2%
inhibition [29]: 97%
inhibition [30]: 28%
level, % of control [31]: 1.2%
level, % of control [32]: 0.45%
% of control [33]: 0%
level, % of control [34]: 22%
level, % of control [35]: 0.85%
level, % of control [36]: 6.2%
level, % of control [37]: 3.4%
level, % of control [38]: 0%
level, % of control [39]: 2.9%
level, % of control [40]: 0.25%

CCN1CCN(Cc2ccc(NC(=O)c3ccc(C)c(C#Cc4cccnc4)c3)cc2C(F)(F)F)CC1
EC50 (BaF3): 92 nM
residual binding, % of control [1]: 0.05%
residual binding, % of control [2]: 100%
residual binding, % of control [3]: 100%
residual binding, % of control [4]: 0.05%
residual binding, % of control [5]: 72%
residual binding, % of control [6]: 95%
residual binding, % of control [7]: 100%
residual binding, % of control [8]: 1%
residual binding, % of control [9]: 0%
residual binding, % of control [10]: 100%
residual binding, % of control [11]: 1.4%
residual binding, % of control [12]: 100%
residual binding, % of control [13]: 0.4%
residual binding, % of control [14]: 8.1%
inhibition [15]: 40%
inhibition [16]: 3.4%
inhibition [17]: 3.2%
inhibition [18]: 0%
residual binding, % of control [19]: 100%
residual binding, % of control [20]: 0.25%
residual binding, % of control [21]: 95%
residual binding, % of control [22]: 16%
residual binding, % of control [23]: 0%
inhibition [24]: 100%
inhibition [25]: 85%
inhibition [26]: 58%
residual binding, % of control [27]: 0.5%
residual binding, % of control [28]: 0.5%
inhibition [29]: 100%
inhibition [30]: 47%
level, % of control [31]: 2%
level, % of control [32]: 0.55%
% of control [33]: 0.05%
level, % of control [34]: 40%
level, % of control [35]: 1.2%
level, % of control [36]: 1.2%
level, % of control [37]: 20%
level, % of control [38]: 0%
level, % of control [39]: 6.2%
level, % of control [40]: 1.2%
